{
  "source": "patent US7344851B2",
  "about": "“Anticancer agents based on prevention of protein prenylation” (Arizona Biomedical Research Commission, priority 1998, dated 2008)",
  "type_in_all_cases": "biochemical",
  "key": {"human recombinant FTase [1]": {"biological_target": "T1, human recombinant FTase (Homo sapiens, UniProt P49354+P49356)", "T1 construct": "gift from Professor Patrick Casey, Duke University", "experiment": "FTase inactivation, fluorescence assay of farnesylation of Ds-GCVLS after preincubation with inactivator"}, "human recombinant FTase [2]": {"biological_target": "T1, human recombinant FTase", "experiment": "FTase inactivation, fluorescence assay of farnesylation of Ds-GCVLS after preincubation with inactivator", "details": "for inactivation of FTase (result in words): preincubation of FTase with compound, fluorescence assay", "procedure": "For example, the catalytic ability of FTase was monitored by an assay procedure in which FTase transferred the farnesyl group from FPP to a peptide substitute for Ras. The peptide substitute for Ras in this assay had structural elements in common with Ras, in particular a sequence of four amino acids cysteinyl-valyl-lysyl-serine (cys-val-lys-ser).\nInactivation of the enzyme FTase occurred when the FTase was preincubated with phenylglyoxal monohydrate, as evidenced by (1) a decrease in enzyme activity with increasing time of preincubation with phenylglyoxal monohydrate; and (2) a decrease in enzyme activity with increasing concentration of phenylglyoxal monohydrate. Because of interference of phenylglyoxal monohydrate with the fluorescence assay used, phenylglyoxal monohydrate was removed from the FTase preincubation mixture by ultrafiltration prior to the assay being performed.\nFTase assay The fluoresence assay conditions were adapted from a published method. The FTase assay consisted of the measurement of the rate of FTase-catalyzed farnesylation of the fluorescent pentapeptide Ds-GCVLS. Upon farnesylation of the cysteine, the fluoresence emission at =505 nm of the dansyl group is enhanced due to the proximity of the hydrophobic isoprenoid group. Enzyme activity (approximately 60 nM FTase) was monitored at saturating substrate concentrations (10 M farnesyl pyrophosphate, ammonium salt, prepared by successive dilutions of a commercial 2.3 mM solution in methanol:10 mM aqueous NH4OH (7:3) into assay buffer, and 1.0 M Ds-GCVLS) by measurement of the increase in fluorescence emission observed at =505 nm as FTase farnesylated Ds-GCVLS for a period of 10 min. The assay buffer was selected for unreactivity toward PGO: 50 mM NaHEPES, 5 mM DTT, 5 mM MgCl2, 10 μM ZnCl2, and 0.2% n-octyl-β-D-glucopyranoside, pH 7.5. Fluorescence emission was measured with a JASCO FP-77 spectrofluorimeter fitted with a temperature-controlled cuvette holder connected to a 30 C. constant temperature bath. All fluoresence assays were conducted in a 4 mm 4 mm quartz cuvette with excitation at 340 nm.\nInactivation of FTase by PGO FTase was incubated at 30 C in the presence and absence of PGO at various concentrations in 50 mM NaHEPES, 5 mM MgCl2, 10 μM ZnCl2, and 0.2% n-octyl-β-D-glucopyranoside, pH 7.5 (i.e., assay buffer without DTT). Periodically, aliquots of the FTase-PGO reaction mixture were removed and assayed for FTase activity. Because of interference of PGO with the fluorometric assay, the aliquot was first subjected to solvent exchange by size exclusion membrane concentration to remove PGO. The solvent exchange utilized Microcon (Millipore Co.) 30 kD molecular weight cutoff microconcentrators. This also served to stop further inactivation of the enzyme by PGO. A 100-L aliquot of FTase-PGO reaction mixture was pipetted into a Microcon concentrator, which was centrifuged at 12,000 RPM for 8 min at 4 C. The concentrate was resuspended in […] of assay buffer, and centrifugation was repeated. The final concentrate was resuspended in 90 L of assay buffer, and the resulting solution was recovered by inversion of the concentrator and centrifugation at 3500 RPM for 3 min at 4 C. The solution was then assayed for FTase activity as described above. A control was handled as above, except that PGO was omitted from the incubation mixture."}, "human recombinant FTase [3]": {"biological_target": "T1, human recombinant FTase", "experiment": "FPP protection of FTase against inactivation by PGO", "details": "FPP at various concentrations 2 min, then 10 mM PGO for 30 min at 30° C.; FIG. 3", "procedure": "FIG. 3. Farnesyl pyrophosphate protection of FTase from inactivation by PGO. Points are determined by 100×(FTase activity after incubation with FPP and PGO)/(FTase activity after incubation with FPP without PGO). Assays were carried out after removal of FPP and PGO with a high molecular weight cutoff microconcentrator. Each point is the average of duplicate determinations.\nFPP protection of FTase against inactivation by PGO FTase was treated with FPP at various concentrations in assay buffer without DTT for 2 min at 30° C. prior to incubation of the mixture with 10 mM PGO for 30 min at 30° C. The control was incubated with FPP at the corresponding concentration for the full length of time, but without PGO. The mixtures were subsequently subjected to microconcentration and assay, as described above."}},
  "data": [
    {"smiles": "CCC(=O)C(C)=O", "note": "[2,3-pentanedione]", "values": [
      {"measurement": "FTase activity, % of the initial control value", "setting": "human recombinant FTase [1]; 17 mM, approximately 30 minutes of incubation, 50 mM sodium borate, pH 7.5, FTase 15 nM, Microcon step omitted", "value": 69, "unit": "%"},
      {"measurement": "FTase activity, % of the initial control value", "setting": "human recombinant FTase [1]; 33 mM, approximately 30 minutes of incubation, 50 mM sodium borate, pH 7.5, FTase 15 nM, Microcon step omitted", "value": 55, "unit": "%"},
      {"measurement": "FTase activity, % of the initial control value", "setting": "human recombinant FTase [1]; 66 mM, approximately 30 minutes of incubation, 50 mM sodium borate, pH 7.5, FTase 15 nM, Microcon step omitted", "value": 37, "unit": "%"},
      {"measurement": "inactivation of FTase (result in words)", "setting": "human recombinant FTase [2]", "value": "rapidly inactivated FTase"}
    ]},
    {"smiles": "CCCCCCCCCCC(=O)C=O", "note": "[2-oxododecanal]", "values": [
      {"measurement": "time of incubation until FTase activity was lost", "setting": "human recombinant FTase [2]; 35 mM 2-oxododecanal, 5% DMSO, data not shown", "value": "≤ 2", "unit": "min"},
      {"measurement": "inactivation of FTase (result in words)", "setting": "human recombinant FTase [2]", "value": "rapidly inactivated FTase"}
    ]},
    {"smiles": "O=CC(=O)c1ccc(-c2ccc(C(=O)C=O)cc2)cc1", "note": "[4,4′-biphenyldiglyoxaldehyde]", "values": [
      {"measurement": "FTase activity, % of the initial control value", "setting": "human recombinant FTase [1]; 23 μM, 30 minutes of incubation, FTase 15 nM, 4.6% DMSO", "value": 68, "unit": "%"},
      {"measurement": "FTase activity, % of the initial control value", "setting": "human recombinant FTase [1]; 93 μM, 30 minutes of incubation, FTase 15 nM, 4.6% DMSO", "value": 11, "unit": "%"},
      {"measurement": "inactivation of FTase (result in words)", "setting": "human recombinant FTase [2]", "value": "rapidly inactivated FTase"}
    ]},
    {"smiles": "CC(=O)c1ccc(-c2ccc(C(C)=O)cc2)cc1", "note": "[4,4′-diacetylbiphenyl, reference compound]", "values": [
      {"measurement": "FTase activity compared with the control", "setting": "human recombinant FTase [1]; 23 μM, 120 minutes of incubation, FTase 15 nM, 4.6% DMSO", "value": "the same as the control"},
      {"measurement": "inactivation of FTase (result in words)", "setting": "human recombinant FTase [2]", "value": "did not inactivated FTase"}
    ]},
    {"smiles": "CC(=O)C(=O)CC(C)CCC=C(C)C", "note": "(stereo not shown) [5,9-dimethyl-8-decene-2,3-dione]", "values": [
      {"measurement": "FTase activity, % of the initial control value", "setting": "human recombinant FTase [1]; 17 μM, 30 minutes of incubation, FTase 15 nM, 4.6% DMSO, Microcon step omitted", "value": 38, "unit": "%"},
      {"measurement": "FTase activity, % of the initial control value", "setting": "human recombinant FTase [1]; 68 μM, 30 minutes of incubation, FTase 15 nM, 4.6% DMSO, Microcon step omitted", "value": 18, "unit": "%"},
      {"measurement": "FTase activity, % of the initial control value", "setting": "human recombinant FTase [1]; 171 μM, 30 minutes of incubation, FTase 15 nM, 4.6% DMSO, Microcon step omitted", "value": 16, "unit": "%"},
      {"measurement": "inactivation of FTase (result in words)", "setting": "human recombinant FTase [2]", "value": "rapidly inactivated FTase"}
    ]},
    {"smiles": "O=CC(=O)c1ccccc1", "note": "[PGO, phenylglyoxal monohydrate]", "values": [
      {"measurement": "rate of inactivation of FTase", "setting": "human recombinant FTase [1]; 5 mM PGO, FIG. 2", "value": "the rate of inactivation was reduced"},
      {"measurement": "FTase activity following preincubation with inactivator", "setting": "human recombinant FTase [2]; 10 mM PGO for 10 min, PGO removed by microconcentrator, FIG. 1", "value": "virtual absence of enzyme activity"},
      {"measurement": "rate of inactivation of FTase", "setting": "human recombinant FTase [2]; 10 mM PGO, compared with 20 mM, FIG. 2", "value": "slower but still quite rapid"},
      {"measurement": "inactivation of FTase (result in words)", "setting": "human recombinant FTase [2]; listed as phenylglyoxal monohydrate, monohydrate", "value": "rapid and virtually complete inactivation"},
      {"measurement": "inactivation of FTase (result in words)", "setting": "human recombinant FTase [2]; monohydrate", "value": "rapidly inactivated"},
      {"measurement": "effect of preincubation of FTase with FPP on inactivation by PGO", "setting": "human recombinant FTase [3]", "value": "decreased the ability of PGO to inactivate FTase"}
    ]},
    {"smiles": "CCCCCCCCCCCCCCCC(=O)OC[C@H](O)[C@H]1OC(=O)C(=O)C1=O", "note": "[dehydroascorbic acid 6-palmitate]", "values": [
      {"measurement": "FTase activity, % of the initial control value", "setting": "human recombinant FTase [1]; 7 μM, 30 minutes of incubation, FTase 15 nM, 0.46% DMSO, Microcon step omitted", "value": 75, "unit": "%"},
      {"measurement": "FTase activity, % of the initial control value", "setting": "human recombinant FTase [1]; 28 μM, 30 minutes of incubation, FTase 15 nM, 0.46% DMSO, Microcon step omitted", "value": 34, "unit": "%"},
      {"measurement": "FTase activity, % of the initial control value", "setting": "human recombinant FTase [1]; 141 μM, 30 minutes of incubation, FTase 15 nM, 0.46% DMSO, Microcon step omitted", "value": 22, "unit": "%"},
      {"measurement": "inactivation of FTase (result in words)", "setting": "human recombinant FTase [2]", "value": "rapidly inactivated FTase"}
    ]}
  ]
}
